Values belong to the compound of their own block, whether it stands above or below them. Activity calls are given as the source filed them. The calls are words filed in the database; no cut-off is given here.
Experiments:
MV4-11 = assay: Antiproliferative activity against human MV4-11 cells assessed as inhibition of cell growth; format: functional, cell-based
RS4-11 = assay: Antiproliferative activity against human RS4-11 cells assessed as inhibition of cell growth; format: functional, cell-based
KARPAS-422 [1] = assay: Antitumor activity against human KARPAS-422 cells xenografted in FOX CHASE SCID C.B.17/Icr-scid/scid Jc1 mouse assessed as inhibition of tumor growth at 160 mg/kg, po BID for 16 days; format: functional, organism-based; settings: time 16.0 day
Mus musculus = assay: In vivo inhibition of EZH1/2 in FOX CHASE SCID C.B.17/Icr-scid/scid Jc1 mouse xenografted with human KARPAS-422 cells assessed as decrease in H3K27me3 level in tumor at 40 to 160 mg/kg, po BID for 16 days and measured 1 day after cessation of drug dosing; format: functional, organism-based; settings: dose lower 40.0 mg/kg, dose upper […], time 16.0 day
KARPAS-422 [2] = assay: Antitumor activity against human KARPAS-422 cells xenografted in FOX CHASE SCID C.B.17/Icr-scid/scid Jc1 mouse assessed as inhibition of tumor growth administered orally BID for 16 days; format: functional; settings: dose lower 40.0 mg/kg, dose upper […], route po, time 16.0 day
[3] = AUC (0 to 24 hrs) in BALB/c mouse at 40 mg/kg administered as single dose; format: ADME, organism-based; settings: in vivo, route po
[4] = Cmax in BALB/c mouse at 40 mg/kg administered as single dose; format: ADME, organism-based; settings: in vivo, route po
G-401 = assay: Antitumor activity against human G-401 cells xenografted in female CAnN.Cg-Foxn1nu/CrlCrljFoxn1nu/Foxn1nu mouse assessed as suppression of tumor growth at 50 mg/kg, po qd for 12 days; format: functional, organism-based; settings: time 12.0 day
NCI-N87 [5] = assay: Antitumor activity against human NCI-N87 cells xenografted in female CAnN.Cg-Foxn1nu/CrlCrljFoxn1nu/Foxn1nu mouse assessed as tumor regression at 50 mg/kg, po qd for 28 days and measured for 40 days after drug dosing cessation; format: functional, organism-based; settings: time 28.0 day
NCI-N87 [6] = assay: Antitumor activity against human NCI-N87 cells xenografted in female CAnN.Cg-Foxn1nu/CrlCrljFoxn1nu/Foxn1nu mouse assessed as tumor regression at 50 mg/kg, po qd for 28 days; format: functional, organism-based; settings: time 28.0 day

EC50 (MV4-11): 0.525 µM
EC50 (RS4-11): 1.96 µM
SMILES: CCCc1cc(C)[nH]c(=O)c1CNC(=O)c1cc(-c2ccc(N3CCN(C(C)C)CC3)nc2)cc2c1cnn2C(C)C

AUC(0-t) [3]: 45 µM·h
Cmax [4]: 6 µM
SMILES: CCN1CCN(c2ccc(-c3cc(C(=O)NCc4c(C)cc(C)[nH]c4=O)c(C)c4c3O[C@](C)(CN3CCOCC3)O4)cn2)CC1
Activity (KARPAS-422 [1]): Active
inhibition (Mus musculus): Active
Activity (KARPAS-422 [2]): Dose-Dependent Effect

SMILES: Cc1cc(C)c(CNC(=O)c2cc(Br)c3c(c2C)OC(C)(C2CCC(N(C)C)CC2)O3)c(=O)[nH]1 (stereo not given)
Activity (G-401): Active
Activity (NCI-N87 [5]): Active
Activity (NCI-N87 [6]): inactive

Reference: ChEMBL document CHEMBL5647694, “Novel orally bioavailable EZH1/2 dual inhibitors with greater antitumor efficacy than an EZH2 selective inhibitor” (Cancer Sci, 2017)
